The values below come from PubChem BioAssay AID2060355 (Molecular Pharmacology Branch, DTP, NCI, 2025).

Where “and” joins values, the source holds several entries; their conditions need not be identical. Identical values can stand only once.

In the experiment the test system is 485368-065-R4-J2-PDC spheroids with HUVEC/MSC, viability. As to the kind of experiment: Anticancer human tumor 485368-065-R4-J2-PDC patient-derived pancreatic carcinoma cell line growth inhibition [TAK]. Conditions: for viability, T/C: stronger effect = lower value. The source says: Combinatorial screen of targeted agents with TAK-243 and ipatasertib in multi-cell type tumor spheroids
A high-throughput screen of multi-cell type tumor spheroids was designed to identify active combinations of targeted small molecules and TAK-243 or ipatasertib. Complex spheroids include a stromal component modeled by human endothelial cells (HUVEC) and fibroblasts modeled by human mesenchymal stem cells (MSCs). The concentration ranges selected for each drug and investigational agent were based upon clinically achievable concentrations if the clinical Cmax of the agent was known.
Compounds. The drugs and investigational agents: TAK-243 (785004), ipatasertib (767898), everolimus (733504), selumetinib (741078), bortezomib (756655), trametinib (758246), ixazomib (758254), vemurafenib (761431), dabrafenib (764134), sapanisertib (764658), alpelisib (765974), and copanlisib (816437), were obtained from the National Cancer Institute (NCI) Developmental Therapeutics Program Chemical Repository. The FDA-approved anticancer drug set is available from the NCI Developmental Therapeutics Program. […] The stock solutions were prepared in dimethyl sulfoxide (DMSO, Sigma-Aldrich, St. Louis, MO, cat. D2650) at 800-fold the tested concentration and stored at -70 degrees C prior to their use. All drugs and investigational agents were tested over a range starting from a high concentration at or near the clinical Cmax and decreasing in half-log increments. If the clinical Cmax for an agent had not been determined, the highest concentration tested was 10 microM.
NCI60 Cell Culture. NCI60 cell lines were obtained from the NCI Developmental Therapeutics Program Tumor Repository. For each lot of cells, the Repository performed Applied Biosystems AmpFLSTR Identifiler testing with PCR amplification to confirm consistency with the published Identifier STR profile for each cell line. Cells were kept in continuous culture for no more than 20 passages. The optimal seeding densities for each of the cell lines at each time point assessed were determined prior to performing the concentration response studies. Briefly, the NCI60 human tumor lines were grown as monolayers in RPMI 1640 medium supplemented with 10% FBS and 2 mmol/L L-glutamine.
An additional 2 lines were from the NCI60 cell line panel including melanomas, MALME-3M and SK-MEL-2. Pooled donor human umbilical vein endothelial cells (HUVEC, Lonza, cat. CC-2519) and human mesenchymal stem cells (hMSC, Lonza, cat. PT-2501) were purchased from Lonza (Walkersville, MD).
PDMR cell lines were grown in complete medium (DC medium): Dulbecco's modified Eagle's medium (DMEM)/F12 supplemented with 5% fetal bovine serum (FBS), 2 mM L-glutamine, 100 U/mL penicillin and 100 µg/ml streptomycin, 0.4 µg/ml hydrocortisone, 10 ng/ml epidermal growth factor (EGF) recombinant human protein, 24 µg/mL adenine, and 0.1 mg/mL primocin. During culture from frozen stock vials, PDMR cells were cultured in the same medium containing 10 µM Y-27632 (see Table 3). The PDCs were cultured in complete DMEM/F12 media without 10 microM Y-27632 dihydrochloride for at least two passages prior to the screen. The pooled donor HUVEC and hMSC were cultured in endothelial cell growth medium 2 (PromoCell, Heidelberg, Germany, cat. C-22011) and mesenchymal stem cell growth medium 2 (PromoCell, cat. C-28009), respectively. For all experiments, HUVEC and hMSC were used at passages </=5.
For the pre-screen, cell seeding densities were determined from a titration spanning the range from 5,000 to 313 cells per well. The mct-spheroids including 60% malignant cells, 25% HUVEC and 15% MSC dispensed as a mixture into U-bottom Ultra-Low Attachment 384-well plates (Corning, NY)
High-throughput Drug Combination Screening.
Prior to their inoculation into 384-well plates, malignant cells, HUVEC, and hMSC were removed from T flasks using TrypLE express (Thermo Fisher Scientific, cat. 12605036) and harvested by centrifugation for 5 min at 233 x g. […]

[1] abbreviates: curve of first compound, second compound 0.3 µM.
[2] abbreviates: curve of first compound, second compound 0.949 µM.
Where [3] appears, read: curve of first compound, second compound 3 µM.
[4] abbreviates: curve of first compound, second compound 9.49 µM.
[5] abbreviates: curve of first compound, second compound 30 µM.
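Also: spheroids exposed to compounds for seven days before readout.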
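For viability, T/C in this document: 100% = DMSO vehicle control wells.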

In the case of `CC(=O)Nc1cccc(-n2c(=O)n(C3CC3)c(=O)c3c(Nc4ccc(I)cc4F)n(C)c(=O)c(C)c32)c1` + CC(C)NCC(C(=O)N1CCN(c2ncnc3c2C(C)CC3O)CC1)c1ccc(Cl)cc1, the IC50 by setting is: under setting [1], 3.49 nM; under setting [2], 1.61 nM; under setting [3], 1.23 nM; under setting [4], 0.596 nM; under setting [5], 0.316 nM. The viability, T/C was 89.9% (second compound 0.3 µM, first compound 94.9 pM); 76.2% (second compound 0.3 µM, first compound 0.0003 µM); 72.8% (second compound 0.3 µM, first compound 0.000949 µM); 51.8% (second compound 0.3 µM, first compound 0.003 µM); 33.5% (second compound 0.3 µM, first compound 0.00949 µM); 20.4% (second compound 0.3 µM, first compound 0.03 µM). In addition, the viability, T/C by setting is: (second compound 0.949 µM, first compound 94.9 pM) 94.2%; (second compound 0.949 µM, first compound 0.0003 µM) 92.3%; (second compound 0.949 µM, first compound 0.000949 µM) 61.8%; (second compound 0.949 µM, first compound 0.003 µM) 34.3%; (second compound 0.949 µM, first compound 0.00949 µM) 19.2%; (second compound 0.949 µM, first compound 0.03 µM) 12.7%. In addition, the viability, T/C (second compound 3 µM, first compound 94.9 pM) was 96.6%; the viability, T/C (second compound 3 µM, first compound 0.0003 µM) was 88.2%; the viability, T/C (second compound 3 µM, first compound 0.000949 µM) is 58.3%; the viability, T/C (second compound 3 µM, first compound 0.003 µM) is 22%; the viability, T/C (second compound 3 µM, first compound 0.00949 µM) was 12%; the viability, T/C (second compound 3 µM, first compound 0.03 µM) is 8.82%. Moreover, the viability, T/C (second compound 9.49 µM, first compound 94.9 pM) was 89.8%; the viability, T/C (second compound 9.49 µM, first compound 0.0003 µM) was 70.1%; the viability, T/C (second compound 9.49 µM, first compound 0.000949 µM) is 36.3%; the viability, T/C (second compound 9.49 µM, first compound 0.003 µM) was 15.8%; the viability, T/C (second compound 9.49 µM, first compound 0.00949 µM) was 10.2%; the viability, T/C (second compound 9.49 µM, first compound 0.03 µM) was 7.89%. Besides, the viability, T/C is 70.6% (second compound 30 µM, first compound 94.9 pM); 50% (second compound 30 µM, first compound 0.0003 µM); 31.5% (second compound 30 µM, first compound 0.000949 µM); 13.8% (second compound 30 µM, first compound 0.003 µM); 10.2% (second compound 30 µM, first compound 0.00949 µM); 7.05% (second compound 30 µM, first compound 0.03 µM).
For `Cn1cnc2c(F)c(Nc3ccc(Br)cc3Cl)c(C(=O)NOCCO)cc21`, the viability, T/C (compound 0.00949 µM) was 70.9% and 67.5%; the viability, T/C (compound 0.03 µM) is 68.9% and 66.8%; the viability, T/C (compound 0.0949 µM) is 76.3% and 60.8%; the viability, T/C (compound 0.3 µM) is 64.8% and 51%; the viability, T/C (compound 0.949 µM) is 54.1% and 43.5%; the viability, T/C (compound 3 µM) was 36.9% and 30.2%. The IC50 (curve of compound) is 1220 nM and 405 nM.
As to `CC(C)(C)c1nc(-c2cccc(NS(=O)(=O)c3c(F)cccc3F)c2F)c(-c2ccnc(N)n2)s1`, the viability, T/C is 111% and 113% (compound 0.0316 µM); 101% and 105% (compound 0.1 µM); 84.3% and 89.6% (compound 0.316 µM); 57.7% and 75.8% (compound 1 µM); 57% and 60.5% (compound 3.16 µM); 49.8% and 54.4% (compound 10 µM). Moreover, the IC50 (curve of compound) was over 10000 nM.
As to `CCCS(=O)(=O)Nc1ccc(F)c(C(=O)c2c[nH]c3ncc(-c4ccc(Cl)cc4)cc23)c1F` + CC(C)NCC(C(=O)N1CCN(c2ncnc3c2C(C)CC3O)CC1)c1ccc(Cl)cc1, the IC50 is, setting by setting: under setting [1], over 100000 nM; under setting [2], over 100000 nM; under setting [3], 6760 nM; under setting [4], 6080 nM; under setting [5], 4180 nM. Further, the viability, T/C is 107% (second compound 0.3 µM, first compound 0.316 µM); 101% (second compound 0.3 µM, first compound 1 µM); 93.5% (second compound 0.3 µM, first compound 3.16 µM); 50.3% (second compound 0.3 µM, first compound 10 µM); 24.3% (second compound 0.3 µM, first compound 31.6 µM); 80.8% (second compound 0.3 µM, first compound 100 µM). The viability, T/C runs as follows: (second compound 0.949 µM, first compound 0.316 µM) 103%; (second compound 0.949 µM, first compound 1 µM) 100%; (second compound 0.949 µM, first compound 3.16 µM) 85.7%; (second compound 0.949 µM, first compound 10 µM) 40.8%; (second compound 0.949 µM, first compound 31.6 µM) 25.1%; (second compound 0.949 µM, first compound 100 µM) 85.1%. For the same molecule, the viability, T/C is 101% (second compound 3 µM, first compound 0.316 µM); 99.5% (second compound 3 µM, first compound 1 µM); 78.1% (second compound 3 µM, first compound 3.16 µM); 34.7% (second compound 3 µM, first compound 10 µM); 29.8% (second compound 3 µM, first compound 31.6 µM); 19.4% (second compound 3 µM, first compound 100 µM). Moreover, the viability, T/C (second compound 9.49 µM, first compound 0.316 µM) is 96.7%; the viability, T/C (second compound 9.49 µM, first compound 1 µM) was 95.6%; the viability, T/C (second compound 9.49 µM, first compound 3.16 µM) is 77.4%; the viability, T/C (second compound 9.49 µM, first compound 10 µM) was 28.8%; the viability, T/C (second compound 9.49 µM, first compound 31.6 µM) is 20.2%; the viability, T/C (second compound 9.49 µM, first compound 100 µM) was 14.8%. Moreover, the viability, T/C by setting is: (second compound 30 µM, first compound 0.316 µM) 84%; (second compound 30 µM, first compound 1 µM) 83.8%; (second compound 30 µM, first compound 3.16 µM) 62.7%; (second compound 30 µM, first compound 10 µM) 10.1%; (second compound 30 µM, first compound 31.6 µM) 10.2%; (second compound 30 µM, first compound 100 µM) 9.85%.
